This note sets out measurements from patent US20140227326A1, “METHOD OF DELIVERING NASAL SPRAY” (priority 2004, published 2014).

This data set in a line: Pharmacokinetic testing of olopatadine 0.6% nasal spray in clinical trials (plasma level by HPLC). In kind it is in vivo. The settings on record: human subjects, formulation containing 0.6% olopatadine, two sprays/nostril twice per day, intranasal.

Turning to `CN(C)CC/C=C1/c2ccccc2COc2ccc(CC(=O)O)cc21` [olopatadine, Z-11-(3-dimethylaminopropylidene)-6,11-dihydrodibenz[b,e]oxepine-2-acetic acid], the “time post-dose at which peak plasma concentration was measured” value lay within 0.5 to 2 h. Besides, the “peak plasma concentration of olopatadine (C.), observed range” value (plasma, high performance liquid chromatography) lay within 14.4 to 35.3 ng/mL. In addition, the “peak plasma concentration of olopatadine (C.), mean” value (plasma, mean +/- spread) was 23.3 ± 6.1 ng/mL.
